# What was measured:
# [1] = tested on: Akt; assay: Akt activity by Western blot in porcine vascular endothelial cells (PECs); format: cell-based; conditions: 100 μM, 10 minutes
# Description: Porcine vascular endothelial cells (PECs) were cultured at 37° C. in the presence of 5% CO2 using a DMEM medium containing 10% FCS, 1% NEAA and 1% P/S (100 units/ml penicillin and 100 μg/ml streptomycin).
# 6×10^5 PECs were inoculated per dish using 6 cm dishes (NUNC), washed twice with phosphate buffered saline (PBS) (-), and then cultured for 24 hours in a serum-free DMEM medium containing 1% NEAA. Subsequently, at a final concentration of 100 μM, homoserine lactone hydrochloride, N-butyryl-L-homoserine lactone, N-(3-oxohexanoyl)-L-homoserine lactone and N-(3-oxododecanoyl)-L-homoserine lactone were each added, and then each solution was allowed to react for 10 minutes. Similarly to (1), the effect of acylated homoserine lactone on Akt activity in PECs were examined by Western blotting.
# [2] = tested on: JNK; assay: MAP kinase activity by Western blot in CaCo-2 cells: phosphorylated JNK; format: cell-based, human; conditions: 10 minutes
# Description: A CaCo-2 carcinoma cell line of human colon cancer was purchased from American Type Culture Collection (ATCC), and cultured at 37° C. in the presence of 5% CO2 using a DMEM medium containing 10% FCS, 1% NEAA and 1% P/S (100 units/ml penicillin and 100 μg/ml streptomycin).
# 6×10^5 CaCo-2 cells were inoculated per dish using 6 cm dishes (NUNC), washed twice with phosphate buffered saline (PBS) (-), and then cultured in a serum-free DMEM medium containing 1% NEAA for 24 hours. Subsequently, at a final concentration of 100 μM, homoserine lactone hydrochloride and N-(3-oxododecanoyl)-L-homoserine lactone were each added, and then each solution was allowed to react for 10 minutes. […]
# After reaction, the product was washed twice with cold PBS (-), and then frozen at −80° C. […] Concentration of the collected protein was measured, and then the protein equivalent to 50 μg was subjected to SDS-PAGE. […] When phosphorylated ERK, JNK, p38 and Akt were measured, blocking was carried out with 0.1% Tween 20 (TBS-T) containing 5% skim milk/Tris-buffered saline. […]
# After cell culture, MAP kinase activity and Akt activity were analyzed by Western blot in a manner similar to that used in (1), except that N-(3-oxododecanoyl)-L-homoserine lactones in final concentrations of 0 μM (0.25% DMSO), 1 μM, 10 μM, 30 μM and 100 μM were each added and each solution was allowed to react for 10 minutes (FIG. 8).
# [3] = tested on: CaCo-2 cells; assay: Evaluation of viability by Trypan blue staining; format: cell-based, human; conditions: 12 hours of culture
# Description: 2×10^5 CaCo-2 cells were inoculated in a 3.5 cm dish (NUNC), washed twice with PBS (-), and then cultured in a serum-free DMEM medium containing 1% NEAA for 24 hours. Various agents [N-(3-oxododecanoyl)-L-homoserine lactones with final concentrations between 1 and 100 μM] were added, followed by 12 hours of culture. 0.25% DMSO was used as a control. Subsequently, the supernatant and the cells removed from the dish using trypsin-EDTA (TE) were centrifuged at 800 rpm at room temperature for 5 minutes. The supernatant was removed, and then dilution was carried out with 200 μl of DMEM. 50 μl of the dilution was taken in an Eppen tube, an equivalent volume of Trypan blue stain was added, and then the cell count was measured using a hemacytometer. At this time, the sum of the dead cell count and the viable cell count to be measured was determined to be 200 cells or more.
# [4] = tested on: CaCo-2 cells; assay: Effects of kinase inhibitors on N-(3-oxododecanoyl)-L-homoserine lactone-dependent apoptosis, viability by Trypan blue staining; format: cell-based, human; conditions: 30 μM alone, 12 hours, control 96%
# Description: 2×10^5 CaCo-2 cells were inoculated per 3.5 cm dish, cultured for 12 hours in the presence of 10% serum, washed twice with PBS (-), and then synchronously cultured in a serum-free medium for 24 hours. Pretreatment with various inhibitors (50 μM PD98059 and 20 μM SB203580) or DMSO was carried out for 30 minutes. Then 30 μM N-(3-oxododecanoyl)-L-homoserine lactone or DMSO was added, the cells were cultured for 12 hours, and then viability was measured by Trypan blue staining.
# [5] = tested on: TNF-α; conditions: mouse macrophage culture system; cited from earlier work
compound,measurement,setting,value
CCCCCCCCCC(=O)CC(=O)N[C@H]1CCOC1=O [N-(3-oxododecanoyl)-L-homoserine lactone],Akt activity in PECs,[1],significantly decreases
same,"JNK activity, concentration dependence",[2]; 0-100 μM,no concentration-dependent significant difference
same,activation of JNK,[2]; 100 μM,promoted
same,viability,[3]; 1 μM,94%
same,viability,[3]; 10 μM,90%
same,viability,[3]; 30 μM,55%
same,viability,[3]; 100 μM,51%
same,concentration at which viability was significantly decreased,[3],≥ 30 µM
same,viability,[4],49%
same,TNF-α production,[5],promotes

# From patent US7537906B2, “Apoptosis inducer and method of screening for a substance inhibiting acylated homoserine lactone” (priority 2003, dated 2009)
